The text below walks through data of patent US20260183275A1, “SUBSTITUTED QUINOLONE COMPOUNDS USEFUL AS INHIBITORS OF TLR9” (Bristol-Myers Squibb Company, priority 2022, published 2026).

Type in all cases: cell-based
Test [1] concerns the target T1, human TLR9 (Homo sapiens, UniProt Q9NR96).
T1 construct: host or cells: HEK-Blue cells
T1 sequence (Q9NR96 26-1032): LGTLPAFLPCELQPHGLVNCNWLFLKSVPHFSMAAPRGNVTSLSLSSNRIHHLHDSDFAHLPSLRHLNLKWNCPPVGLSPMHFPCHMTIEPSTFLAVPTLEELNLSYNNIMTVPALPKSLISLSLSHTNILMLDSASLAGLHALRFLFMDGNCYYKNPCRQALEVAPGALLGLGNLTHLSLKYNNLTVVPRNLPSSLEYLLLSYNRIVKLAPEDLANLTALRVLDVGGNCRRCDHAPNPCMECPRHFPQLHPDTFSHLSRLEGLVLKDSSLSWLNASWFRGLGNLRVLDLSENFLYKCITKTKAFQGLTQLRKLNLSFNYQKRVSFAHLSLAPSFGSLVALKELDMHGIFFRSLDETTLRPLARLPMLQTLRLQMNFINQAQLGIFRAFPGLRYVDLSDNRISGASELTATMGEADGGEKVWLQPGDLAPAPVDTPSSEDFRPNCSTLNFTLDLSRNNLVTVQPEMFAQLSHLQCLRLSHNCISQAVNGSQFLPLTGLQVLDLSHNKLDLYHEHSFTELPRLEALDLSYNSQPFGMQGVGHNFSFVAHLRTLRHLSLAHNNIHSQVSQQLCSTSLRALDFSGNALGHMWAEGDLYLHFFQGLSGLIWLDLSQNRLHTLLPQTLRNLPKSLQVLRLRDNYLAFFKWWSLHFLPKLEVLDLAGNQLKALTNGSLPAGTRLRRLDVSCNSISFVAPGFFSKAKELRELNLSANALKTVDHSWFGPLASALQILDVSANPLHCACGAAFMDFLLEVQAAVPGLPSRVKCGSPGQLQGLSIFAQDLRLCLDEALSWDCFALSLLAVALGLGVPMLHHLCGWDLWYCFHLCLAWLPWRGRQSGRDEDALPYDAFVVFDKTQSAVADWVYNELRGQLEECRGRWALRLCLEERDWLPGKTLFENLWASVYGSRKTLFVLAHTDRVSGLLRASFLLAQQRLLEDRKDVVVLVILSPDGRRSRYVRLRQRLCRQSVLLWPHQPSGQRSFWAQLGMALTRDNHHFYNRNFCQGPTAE
The test can be described thus: TLR9 inhibition reporter assay (HEK-Blue cells, SEAP reporter). Conditions: HEK-Blue cells overexpressing human TLR9; stimulated with ODN2006 5 nM; SEAP read after 22 hour; dose range 0.05 nM-50 μM. As to the method:
(§1) HEK-Blue™-cells (Invivogen) overexpressing human TLR7, TLR8 or TLR9 receptors were used for screening inhibitors of these receptors using an inducible SEAP (secreted embryonic alkaline phosphatase) reporter gene under the control of the IFN-β minimal promoter fused to five NF-κB and AP-1-binding sites. Briefly, cells are seeded into Greiner 384 well plates (15000 cells per well for TLR7, 20,000 for TLR8 and 25,000 for TLR9) and then treated with test compounds in DMSO to yield a final dose response concentration range of 0.05 nM-50 μM. After a 30 minute compound pre-treatment at room temperature, the cells are then stimulated with a TLR7 ligand (gardiquimod at a final concentration of 7.5 μM), TLR8 ligand (R848 at a final concentration of 15.9 μM) or TLR9 ligand (ODN2006 at a final concentration of 5 nM) to activate NF-κB and AP-1 which induce the production of SEAP. After a 22 hour incubation at 37° C., 5% CO2, SEAP levels are determined with the addition of HEK-Blue™ Detection reagent (Invivogen), a cell culture medium that allows for detection of SEAP, according to manufacturer's specifications. The percent inhibition is determined as the % reduction in the HEK-Blue signal present in wells treated with agonist plus DMSO alone compared to wells treated with a known inhibitor.
A general note: A reporter such as luciferase makes a cellular process visible.

Test [2] has as its target T2, human TLR7 (Homo sapiens, UniProt Q9NYK1).
T2 construct: host or cells: HEK-Blue cells
T2 sequence (Q9NYK1 27-1049): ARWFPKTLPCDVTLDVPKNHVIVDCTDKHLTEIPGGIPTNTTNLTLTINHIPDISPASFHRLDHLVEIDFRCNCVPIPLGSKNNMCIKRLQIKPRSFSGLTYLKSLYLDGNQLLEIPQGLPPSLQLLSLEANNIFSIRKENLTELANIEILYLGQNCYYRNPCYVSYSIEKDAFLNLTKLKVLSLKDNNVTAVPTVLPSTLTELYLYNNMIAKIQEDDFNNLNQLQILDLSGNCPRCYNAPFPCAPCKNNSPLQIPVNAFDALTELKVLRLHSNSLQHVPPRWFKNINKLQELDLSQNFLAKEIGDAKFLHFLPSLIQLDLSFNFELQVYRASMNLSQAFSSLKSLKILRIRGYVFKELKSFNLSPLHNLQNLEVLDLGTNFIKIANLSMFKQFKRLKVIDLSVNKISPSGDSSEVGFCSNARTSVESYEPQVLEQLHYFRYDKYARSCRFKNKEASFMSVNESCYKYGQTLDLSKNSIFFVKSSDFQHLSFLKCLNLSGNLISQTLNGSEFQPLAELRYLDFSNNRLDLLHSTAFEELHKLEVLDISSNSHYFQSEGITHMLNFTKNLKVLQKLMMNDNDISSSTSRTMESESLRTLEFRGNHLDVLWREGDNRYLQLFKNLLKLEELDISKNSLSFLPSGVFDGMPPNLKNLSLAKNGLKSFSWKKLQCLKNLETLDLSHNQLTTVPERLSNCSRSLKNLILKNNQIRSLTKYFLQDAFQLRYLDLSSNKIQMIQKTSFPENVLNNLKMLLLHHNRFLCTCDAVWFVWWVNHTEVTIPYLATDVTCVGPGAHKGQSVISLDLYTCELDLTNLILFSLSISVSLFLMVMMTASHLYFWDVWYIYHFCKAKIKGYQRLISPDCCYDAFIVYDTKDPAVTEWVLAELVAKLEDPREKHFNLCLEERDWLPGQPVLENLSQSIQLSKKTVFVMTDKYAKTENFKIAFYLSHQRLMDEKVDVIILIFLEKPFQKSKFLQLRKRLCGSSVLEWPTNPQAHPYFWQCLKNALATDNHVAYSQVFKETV
The test is described as follows: TLR7 inhibition reporter assay (HEK-Blue cells, SEAP reporter). Conditions: HEK-Blue cells overexpressing human TLR7; stimulated with gardiquimod 7.5 μM; SEAP read after 22 hour; dose range 0.05 nM-50 μM. As to the method: as §1

For test [3], the target named is T3, human TLR8 (Homo sapiens, UniProt Q9NR97).
T3 construct: host or cells: HEK-Blue cells
T3 sequence (Q9NR97 27-1041): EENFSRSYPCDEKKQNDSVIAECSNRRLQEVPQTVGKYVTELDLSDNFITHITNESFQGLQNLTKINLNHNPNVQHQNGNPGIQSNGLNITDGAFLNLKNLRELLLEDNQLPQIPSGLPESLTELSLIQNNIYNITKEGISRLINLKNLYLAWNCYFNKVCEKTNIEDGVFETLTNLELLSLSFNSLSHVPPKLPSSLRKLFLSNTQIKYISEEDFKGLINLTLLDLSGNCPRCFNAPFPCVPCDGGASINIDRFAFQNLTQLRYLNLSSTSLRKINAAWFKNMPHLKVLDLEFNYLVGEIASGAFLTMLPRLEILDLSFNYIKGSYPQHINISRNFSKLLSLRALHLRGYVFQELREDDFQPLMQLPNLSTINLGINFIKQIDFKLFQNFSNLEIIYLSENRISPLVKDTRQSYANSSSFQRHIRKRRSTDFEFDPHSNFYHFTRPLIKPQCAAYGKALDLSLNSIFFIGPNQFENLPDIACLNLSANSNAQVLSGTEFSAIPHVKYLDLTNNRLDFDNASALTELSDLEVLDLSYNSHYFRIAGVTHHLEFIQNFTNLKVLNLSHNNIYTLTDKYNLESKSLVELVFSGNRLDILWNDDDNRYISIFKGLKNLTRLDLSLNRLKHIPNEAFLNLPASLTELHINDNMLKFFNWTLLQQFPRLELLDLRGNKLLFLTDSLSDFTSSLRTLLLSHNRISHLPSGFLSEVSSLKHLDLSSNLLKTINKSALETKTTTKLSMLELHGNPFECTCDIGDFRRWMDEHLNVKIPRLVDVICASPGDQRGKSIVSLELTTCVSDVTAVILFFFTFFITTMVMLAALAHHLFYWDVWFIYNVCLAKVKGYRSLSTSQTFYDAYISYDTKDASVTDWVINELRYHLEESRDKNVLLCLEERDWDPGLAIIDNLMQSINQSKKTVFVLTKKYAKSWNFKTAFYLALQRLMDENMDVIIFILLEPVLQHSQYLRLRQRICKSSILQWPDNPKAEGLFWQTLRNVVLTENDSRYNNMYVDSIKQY
The test is described as follows: TLR8 inhibition reporter assay (HEK-Blue cells, SEAP reporter). Conditions: HEK-Blue cells overexpressing human TLR8; stimulated with R848 15.9 μM; SEAP read after 22 hour; dose range 0.05 nM-50 μM. As to the method:
as §1

SMILES strings stand for the structures.

One may read the IC50 as the concentration that inhibits the measured activity by half. Read a low IC50 as inhibition by little substance.

`CC(C)C(=O)Nc1ccc(-c2cc3cc(-c4ccc(N5CCN(C(C)C)CC5)cc4)ccc3n(C)c2=O)cc1` [Example 26, 2-methyl-N-[4-(1-methyl-2-oxo-6-{4-[4-(propan-2-yl)piperazin-1-yl]phenyl}-1,2-dihydroquinolin-3-yl)phenyl]propanamide]: the results for the IC50 in test [1], in test [2] and in test [3] were 231 nM, 1800 nM and 0.673 µM, respectively.

For `CC(C)N1CCN(c2ccc(-c3ccc4c(c3)cc(-c3ccc(S(C)(=O)=O)cc3)c(=O)n4C)cc2)CC1` [Example 27, 3-(4-methanesulfonylphenyl)-1-methyl-6-{4-[4-(propan-2-yl)piperazin-1-yl]phenyl}-1,2-dihydroquinolin-2-one], the IC50 in test [1] worked out at 233 nM; in test [2], 2500 nM; in test [3], 1.04 µM.

Regarding `COC(=O)c1ccc(-c2cc3cc(-c4ccc(N5CCN(C(C)C)CC5)cc4)ccc3[nH]c2=O)cc1` [Example 28, methyl 4-(2-oxo-6-{4-[4-(propan-2-yl)piperazin-1-yl]phenyl}-1,2-dihydroquinolin-3-yl)benzoate], the IC50 was 2280 nM in test [1], no less than 50000 nM in test [2] and no less than 50 µM in test [3].

On to `CC(C)N1CCN(c2ccc(-c3ccc4[nH]c(=O)c(-c5ccccc5NS(C)(=O)=O)cc4c3)cc2)CC1` [Example 29, N-[2-(2-oxo-6-{4-[4-(propan-2-yl)piperazin-1-yl]phenyl}-1,2-dihydroquinolin-3-yl)phenyl]methanesulfonamide], for which the results for the half-maximal inhibitory concentration (IC50) in test [1], in test [2] and in test [3] were 275 nM, 5860 nM and 1.83 µM, respectively.

As to `COc1cccc(-c2cc3cc(-c4ccc(N5CCN(C(C)C)CC5)cc4)ccc3[nH]c2=O)c1` [Example 30, 3-(3-methoxyphenyl)-6-{4-[4-(propan-2-yl)piperazin-1-yl]phenyl}-1,2-dihydroquinolin-2-one], the results for the IC50 in test [1], in test [2] and in test [3] were 277 nM, 2160 nM and 5.21 µM, respectively.

On to `CC(C)N1CCN(c2ccc(-c3ccc4[nH]c(=O)c(-c5ccc(F)cc5)cc4c3)cc2)CC1` [Example 31, 3-(4-fluorophenyl)-6-{4-[1-(propan-2-yl)piperazin-1-yl]phenyl}-1,2-dihydroquinolin-2-one], for which the figures for the concentration for half-maximal inhibition (IC50) in test [1], in test [2] and in test [3] were 286 nM, 42600 nM and 16.7 µM, respectively.

With `CC(C)N1CCN(c2ccc(-c3ccc4[nH]c(=O)c(-c5cccnc5)cc4c3)cc2)CC1` [Example 32, 6-{4-[4-(propan-2-yl)piperazin-1-yl]phenyl}-3-(pyridin-3-yl)-1,2-dihydroquinolin-2-one], the IC50 is 293 nM in test [1], 418 nM in test [2] and 0.017 µM in test [3].

Take `CC(C)N1CCN(c2ccc(-c3ccc4[nH]c(=O)c(-c5ccccc5C(F)(F)F)cc4c3)cc2)CC1` [Example 33, 6-{4-[4-(propan-2-yl)piperazin-1-yl]phenyl}-3-[2-(trifluoromethyl)phenyl]-1,2-dihydroquinolin-2-one]: the results for the 50% inhibitory concentration (IC50) in test [1], in test [2] and in test [3] were 300 nM, 2230 nM and 4.7 µM, respectively.

`CC(C)N1CCN(c2ccc(-c3ccc4[nH]c(=O)c(-c5nn(C)c6ccccc56)cc4c3)cc2)CC1` [Example 35, 3-(1-methyl-1H-indazol-3-yl)-6-{4-[4-(propan-2-yl)piperazin-1-yl]phenyl}-1,2-dihydroquinolin-2-one]: the concentration for half-maximal inhibition (IC50) stood at 314 nM in test [1], 1290 nM in test [2] and 14.1 µM in test [3].

`CC(C)N1CCN(c2ccc(-c3ccc4[nH]c(=O)c(-c5ccc(OC(F)F)cc5)cc4c3)cc2)CC1` [Example 36, 3-[4-(difluoromethoxy)phenyl]-6-{4-[4-(propan-2-yl)piperazin-1-yl]phenyl}-1,2-dihydroquinolin-2-one]: the results for the IC50 in test [1], in test [2] and in test [3] were 344 nM, no less than 50000 nM and no less than 50 µM, respectively.

With `CC(C)N1CCN(c2ccc(-c3ccc4[nH]c(=O)c(-c5c(Cl)cccc5Cl)cc4c3)cc2)CC1` [Example 37], the 50% inhibitory concentration (IC50) in test [1] was 367 nM; in test [2] it was 5560 nM; in test [3], no less than 50 µM.
